According to patent US10799496B2, “Naphthylenyl compounds for long-acting injectable compositions and related methods” (priority 2018, dated 2020):

Assays:
[1] = Whole blood stability assay; assay type: in vitro ADME; details: prodrug 50 nM, fresh pooled human whole blood, 37 degrees C.; read-out: t1/2 at 37 degrees C. in human whole blood
Protocol: Naltrexone prodrug stability was assessed using freshly collected whole blood (within 24-hr collection) from pooled human (n=3) donors. The incubation mixtures were prepared by spiking the prodrugs into pre-warmed (37 degrees C.) fresh whole blood to a final concentration of 50 nM. After gentle mixing, aliquots of incubation mixtures were immediately transferred into four different 96-deep well plates. One plate was used for each time point. The plates were incubated at 37 degrees C. at a shaking speed of 100 rpm. At time points 15, 30, 60 and 120 minutes, the reaction was quenched by addition of a mixture of water and acetonitrile containing the internal standard (naltrexone-D3). Time point 0 minutes was prepared separately by spiking the prodrugs into a quenched whole blood to obtain a final concentration of 50 nM. All samples were vortexed at a low speed for 15 min and centrifuged at 3900 rpm for 15 min. Supernatants were transferred into 96-well plates for LC-MS/MS analysis to monitor the depletion of the prodrugs and the formation of naltrexone.
The amount of remaining prodrug and released naltrexone for each sample was quantitated against the calibration curves prepared with the whole blood. The human whole blood was purchased from BioreclamationIVT (Westbury, N.Y., USA). Naltrexone-D3 was purchased from CERILLIANT® (Round Rock, Tex., USA). […] Where multiple runs have been completed, average values are reported.

[2] = Pharmacokinetic evaluation of the release of naltrexone from Compound 2 in rats following a single intramuscular injection; assay type: in vivo, Sprague-Dawley rats; details: for Compound 2i conc.: rat plasma
Protocol: Five male Sprague-Dawley rats were allowed to acclimate to the test facility for at least 2 days prior to study start. For dose administration of Compound 2, the rats were lightly anesthetized with isofluorane, the hind leg shaved and dosed intramuscularly with the formulation using a 21G needle. […] Serial whole blood samples were collected via sublingual route (˜150 μL) at 1, 8, and 24 hours post dose, and at 2, 4, 7, 10, 14, 17, 21, 24, 28, 35, 42, 49, 56, 63, 71, 78, 85, and 91 days post dose.
Blood samples were placed into K2EDTA blood collection tubes. After collection, blood samples were maintained chilled (on wet ice) and centrifuged (11,500 rpm for 2 minutes at 5 degrees C.) within 30 minutes to obtain plasma. Plasma was transferred into a single vial, 1.5 mL screw cap micro-centrifuge tube with inserts and stored at −80 degrees C. until analysis.
The formulation dosed was a crystalline suspension of Compound 2 (46 milligrams of Compound 2 dosed per animal), wherein the crystalline test article was characterized with a particle size distribution of Dv10=12.9 μm, Dv50=31.5 μm, and Dv90=63.1 μm (as measured via laser diffraction). The formulation was prepared the day before dosing. Details of the formulation dosed are described in Table D below.
Results of the above intramuscular rat study of Compound 2 are shown in Tables E and F. In particular, Table E reports the average blood plasma levels of naltrexone in rat (n=5) over 91 days following intramuscular administration.

Compound `O=C(Cc1cccc2c(CC(=O)Oc3ccc4c5c3O[C@H]3C(=O)CC[C@@]6(O)[C@@H](C4)N(CC4CC4)CC[C@]536)cccc12)Oc1ccc2c3c1O[C@H]1C(=O)CC[C@@]4(O)[C@@H](C2)N(CC2CC2)CC[C@]314` [Compound 1, bis((4R,4aS,7aR,12bS)-3-(cyclopropylmethyl)-4a-hydroxy-7-oxo-2,3,4,4a,5,6,7,7a-octahydro-1H-4,12-methanobenzofuro[3,2-e]isoquinolin-9-yl) 2,2′-(naphthalene-1,5-diyl)diacetate] has a half-life at 50 nM [1] of 26.4 min.
In the case of `O=C(O)Cc1ccc2cc(CC(=O)Oc3ccc4c5c3O[C@H]3C(=O)CC[C@@]6(O)[C@@H](C4)N(CC4CC4)CC[C@]536)ccc2c1` [Compound 2i, 2-(6-(2-(((4R,4aS,7aR,12bS)-3-(cyclopropylmethyl)-4a-hydroxy-7-oxo-2,3,4,4a,5,6,7,7a-octahydro-1H-4,12-methanobenzofuro[3,2-e]isoquinolin-9-yl)oxy)-2-oxoethyl)naphthalen-2-yl)acetic acid], the “Compound 2i conc.” value ([2]; single i.m. dose of Compound 2, day 0.042 (1 hr), Rat 1) is reported as under 0.2 ng/mL, the “Compound 2i conc.” value ([2]; single i.m. dose of Compound 2, day 0.042 (1 hr), Rat 2) is reported as under 0.2 ng/mL and the “Compound 2i conc.” value ([2]; single i.m. dose of Compound 2, day 0.042 (1 hr), Rat 3) is reported as under 0.2 ng/mL. For the same compound, the “Compound 2i conc.” value ([2]; single i.m. dose of Compound 2, day 0.042 (1 hr), Rat 4) was under 0.2 ng/mL, the “Compound 2i conc.” value ([2]; single i.m. dose of Compound 2, day 0.042 (1 hr), Rat 5) was under 0.2 ng/mL and the “Compound 2i conc.” value ([2]; single i.m. dose of Compound 2, day 0.33 (8 hr), Rat 1) was under 0.2 ng/mL. The “Compound 2i conc.” value ([2]; single i.m. dose of Compound 2, day 0.33 (8 hr), Rat 2) was under 0.2 ng/mL, the “Compound 2i conc.” value ([2]; single i.m. dose of Compound 2, day 0.33 (8 hr), Rat 3) was under 0.2 ng/mL and the “Compound 2i conc.” value ([2]; single i.m. dose of Compound 2, day 0.33 (8 hr), Rat 4) was under 0.2 ng/mL. The “Compound 2i conc.” value ([2]; single i.m. dose of Compound 2, day 0.33 (8 hr), Rat 5) was under 0.2 ng/mL, the “Compound 2i conc.” value ([2]; single i.m. dose of Compound 2, day 1, Rat 1) was under 0.2 ng/mL and the “Compound 2i conc.” value ([2]; single i.m. dose of Compound 2, day 1, Rat 2) was under 0.2 ng/mL. The “Compound 2i conc.” value ([2]; single i.m. dose of Compound 2, day 1, Rat 3) was under 0.2 ng/mL, the “Compound 2i conc.” value ([2]; single i.m. dose of Compound 2, day 1, Rat 4) was under 0.2 ng/mL and the “Compound 2i conc.” value ([2]; single i.m. dose of Compound 2, day 1, Rat 5) was under 0.2 ng/mL. The “Compound 2i conc.” value ([2]; single i.m. dose of Compound 2, day 2, Rat 1) was under 0.2 ng/mL, the “Compound 2i conc.” value ([2]; single i.m. dose of Compound 2, day 2, Rat 2) was under 0.2 ng/mL and the “Compound 2i conc.” value ([2]; single i.m. dose of Compound 2, day 2, Rat 3) was under 0.2 ng/mL. The “Compound 2i conc.” value ([2]; single i.m. dose of Compound 2, day 2, Rat 4) was under 0.2 ng/mL, the “Compound 2i conc.” value ([2]; single i.m. dose of Compound 2, day 2, Rat 5) was under 0.2 ng/mL and the “Compound 2i conc.” value ([2]; single i.m. dose of Compound 2, day 4, Rat 1) was under 0.2 ng/mL. For the same compound, the “Compound 2i conc.” value ([2]; single i.m. dose of Compound 2, day 4, Rat 2) was under 0.2 ng/mL, the “Compound 2i conc.” value ([2]; single i.m. dose of Compound 2, day 4, Rat 3) was under 0.2 ng/mL and the “Compound 2i conc.” value ([2]; single i.m. dose of Compound 2, day 4, Rat 4) was under 0.2 ng/mL. The “Compound 2i conc.” value ([2]; single i.m. dose of Compound 2, day 4, Rat 5) was under 0.2 ng/mL, the “Compound 2i conc.” value ([2]; single i.m. dose of Compound 2, day 7, Rat 1) was under 0.2 ng/mL and the “Compound 2i conc.” value ([2]; single i.m. dose of Compound 2, day 7, Rat 2) was under 0.2 ng/mL. For the same compound, the “Compound 2i conc.” value ([2]; single i.m. dose of Compound 2, day 7, Rat 3) was under 0.2 ng/mL, the “Compound 2i conc.” value ([2]; single i.m. dose of Compound 2, day 7, Rat 4) was under 0.2 ng/mL and the “Compound 2i conc.” value ([2]; single i.m. dose of Compound 2, day 7, Rat 5) was under 0.2 ng/mL. For the same compound, the “Compound 2i conc.” value ([2]; single i.m. dose of Compound 2, day 10, Rat 5) was under 0.2 ng/mL, the “Compound 2i conc.” value ([2]; single i.m. dose of Compound 2, day 49, Rat 1) was under 0.1 ng/mL and the “Compound 2i conc.” value ([2]; single i.m. dose of Compound 2, day 49, Rat 2) was under 0.1 ng/mL. The “Compound 2i conc.” value ([2]; single i.m. dose of Compound 2, day 49, Rat 3) was under 0.1 ng/mL, the “Compound 2i conc.” value ([2]; single i.m. dose of Compound 2, day 49, Rat 4) was under 0.1 ng/mL and the “Compound 2i conc.” value ([2]; single i.m. dose of Compound 2, day 56, Rat 1) was under 0.1 ng/mL. The “Compound 2i conc.” value ([2]; single i.m. dose of Compound 2, day 56, Rat 2) was under 0.1 ng/mL, the “Compound 2i conc.” value ([2]; single i.m. dose of Compound 2, day 56, Rat 3) was under 0.1 ng/mL and the “Compound 2i conc.” value ([2]; single i.m. dose of Compound 2, day 56, Rat 4) was under 0.1 ng/mL. The “Compound 2i conc.” value ([2]; single i.m. dose of Compound 2, day 56, Rat 5) was under 0.1 ng/mL, the “Compound 2i conc.” value ([2]; single i.m. dose of Compound 2, day 63, Rat 1) was under 0.1 ng/mL and the “Compound 2i conc.” value ([2]; single i.m. dose of Compound 2, day 63, Rat 2) was under 0.1 ng/mL. For the same compound, the “Compound 2i conc.” value ([2]; single i.m. dose of Compound 2, day 63, Rat 3) was under 0.1 ng/mL, the “Compound 2i conc.” value ([2]; single i.m. dose of Compound 2, day 63, Rat 4) was under 0.1 ng/mL and the “Compound 2i conc.” value ([2]; single i.m. dose of Compound 2, day 63, Rat 5) was under 0.1 ng/mL. The “Compound 2i conc.” value ([2]; single i.m. dose of Compound 2, day 71, Rat 1) was under 0.1 ng/mL, the “Compound 2i conc.” value ([2]; single i.m. dose of Compound 2, day 71, Rat 2) was under 0.1 ng/mL and the “Compound 2i conc.” value ([2]; single i.m. dose of Compound 2, day 71, Rat 3) was under 0.1 ng/mL. The “Compound 2i conc.” value ([2]; single i.m. dose of Compound 2, day 71, Rat 4) was under 0.1 ng/mL, the “Compound 2i conc.” value ([2]; single i.m. dose of Compound 2, day 71, Rat 5) was under 0.1 ng/mL and the “Compound 2i conc.” value ([2]; single i.m. dose of Compound 2, day 78, Rat 1) was under 0.1 ng/mL. The “Compound 2i conc.” value ([2]; single i.m. dose of Compound 2, day 78, Rat 2) was under 0.1 ng/mL, the “Compound 2i conc.” value ([2]; single i.m. dose of Compound 2, day 78, Rat 3) was under 0.1 ng/mL and the “Compound 2i conc.” value ([2]; single i.m. dose of Compound 2, day 78, Rat 4) was under 0.1 ng/mL. The “Compound 2i conc.” value ([2]; single i.m. dose of Compound 2, day 78, Rat 5) was under 0.1 ng/mL, the “Compound 2i conc.” value ([2]; single i.m. dose of Compound 2, day 85, Rat 1) was under 0.1 ng/mL and the “Compound 2i conc.” value ([2]; single i.m. dose of Compound 2, day 85, Rat 2) was under 0.1 ng/mL. For the same compound, the “Compound 2i conc.” value ([2]; single i.m. dose of Compound 2, day 85, Rat 3) was under 0.1 ng/mL, the “Compound 2i conc.” value ([2]; single i.m. dose of Compound 2, day 85, Rat 4) was under 0.1 ng/mL and the “Compound 2i conc.” value ([2]; single i.m. dose of Compound 2, day 85, Rat 5) was under 0.1 ng/mL. The “Compound 2i conc.” value ([2]; single i.m. dose of Compound 2, day 91, Rat 1) was under 0.1 ng/mL, the “Compound 2i conc.” value ([2]; single i.m. dose of Compound 2, day 91, Rat 2) was under 0.1 ng/mL and the “Compound 2i conc.” value ([2]; single i.m. dose of Compound 2, day 91, Rat 3) was under 0.1 ng/mL. For the same compound, the “Compound 2i conc.” value ([2]; single i.m. dose of Compound 2, day 91, Rat 4) was under 0.1 ng/mL, the “Compound 2i conc.” value ([2]; single i.m. dose of Compound 2, day 91, Rat 5) was under 0.1 ng/mL and the “plasma concentrations of parent Compound 2 and the resultant intermediate” value ([2]; rat, single i.m. dose of Compound 2, over 91 days) was “generally low to not measurable”.
Work on `CC(=O)Oc1c(CC(=O)Oc2ccc3c4c2O[C@H]2C(=O)CC[C@@]5(O)[C@@H](C3)N(CC3CC3)CC[C@]425)ccc2c(OC(C)=O)c(CC(=O)Oc3ccc4c5c3O[C@H]3C(=O)CC[C@@]6(O)[C@@H](C4)N(CC4CC4)CC[C@]536)ccc12` [Compound 3, bis((4R,4aS,7aR,12bS)-3-(cyclopropylmethyl)-4a-hydroxy-7-oxo-2,3,4,4a,5,6,7,7a-octahydro-1H-4,12-methanobenzofuro[3,2-e]isoquinolin-9-yl) 2,2′-(1,5-diacetoxynaphthalene-2,6-diyl)diacetate] yielded a half-life at 50 nM [1] of 14.8 min.
